# In patent US12440576B2, “Antibody drug conjugates comprising sting agonists” (Mersana Therapeutics, Inc., priority 2020, dated 2025):
# Where two headings read alike, the source gives them in different places.
# Tests used:
# [1] = tested on: Type III Interferons IFNλ1/IFNλ3 (IL29/IL28b); experiment: IFNλ1/IFNλ3 (IL29/IL28b) production, STING knock out SKBR3/PBMC co-cultures (Example 42); type: cell-based, human
# Method: (§1) Type III IFN induction: Co-cultures of SKBR3 cells and PBMCs were setup as described above to analyze the induction of Type III Interferons in supernatants 24 hours post treatment using a human IL29/IL28b ELISA kit.
# [2] = tested on: IL29/IL28b induction (IFNλ1/λ3); experiment: Type III IFN induction, human IL29/IL28b ELISA, SKBR3/PBMC co-cultures (Example 33); type: cell-based; conditions: SK-BR-3, SKBR3/PBMC co-culture, supernatants 24 hours post treatment
# Method: as §1
# [3] = tested on: STING wild type (sgNT-2) SKBR3 cells; experiment: PBMC killing assay, STING wild type SKBR3 NucRed cells (Examples 30, 30A); type: cell-based, human; conditions: 100, 25, 5 and 1 nM payload
# CXCL10 induction [4] = experiment: CXCL10 induction in SKBR3 cancer cell/PBMC and monocyte co-cultures (Example 33); type: cell-based; conditions: Homo sapiens
# [5] = tested on: Type III Interferons IFNλ1/IFNλ3 (IL29/IL28b); experiment: IFNλ1/IFNλ3 (IL29/IL28b) production, STING wild type SKBR3/PBMC co-cultures (Example 42); type: cell-based, human
# Method: as §1
# [6] = tested on: STING pathway in THP1-Dual cells co-cultured with OVCAR3 cancer cells; experiment: Cancer cell/THP1-IRF3-Luciferase reporter cell co-culture assay, OVCAR3 (Example 26A); type: cell-based; conditions: Homo sapiens, OVCAR-3, 20 h
# Method: Induction of STING pathway in immune cells: The induction of STING pathway in immune cells by NaPi2b-targeted STING ADC was evaluated by a cancer cell/THP1-IRF3-Luciferase reporter cell co-culture assay. OVCAR3 human ovarian carcinoma cells were seeded in 96-well CellBind surface tissue culture plates (15,000/well) and allowed to attach for 6 hours in RPMI-1640 medium with 10% FBS and 1% penicillin/streptomycin. […] THP1-dual reporter cells (30,000) were then added to each well and the incubation continued for 20 hours at 37° C. in a humidified atmosphere of 5% CO2. Cell culture supernatants (20 μl) from each incubated sample was added to resuspended QUANTI-Luc (50 l) and the luminescent signal was measured immediately using a SpectraMax M5 plate reader (Molecular Devices). The EC50 value was determined from the dose response curve.
# [7] = tested on: STING pathway in THP1-Dual cells co-cultured with SKBR3 cancer cells; experiment: Cancer cell/THP1-IRF3-Luciferase reporter cell co-culture assay, SKBR3 (Example 26B); type: cell-based; conditions: Homo sapiens, SK-BR-3
# SKBR3 NucRed cells = experiment: Cancer cell killing activity in SKBR3 NucRed/PBMC or primary human monocyte co-cultures (Example 33); type: cell-based
# Method: 20,000 cells (per well) SKBR3 NucRed cells were seeded in 96-well tissue culture plates and allowed to attach 6 hours in 50 μL of RPMI-1640 medium with 10% FBS and 1% penicillin/streptomycin.
# [8] = tested on: THP1-Dual cells cultured on NaPi2b recombinant peptide coated plates; experiment: THP1 luciferase reporter cells on NaPi2b peptide coated plates (Example 27A); type: cell-based; conditions: Homo sapiens, 20 h
# Method: Human NaPi2b-derived peptide ([sequence]) was coated onto the surface of each well of a 96-well plate by incubation with the peptide (1p g/mL in PBS), overnight at 4° C. The wells were then washed 1× with PBS-T and blocked by incubation with BSA (3% in PBS-T) for 1 hour at room temperature. […] THP1-dual reporter cells (50,000) were added into each well and incubated for 20 hours at 37° C. in a humidified atmosphere of 5% CO2. Cell culture supernatants (20 μl) from each incubated sample was added to resuspended QUANTI-Luc (50 μl) and the luminescent signal was measured immediately using a SpectraMax M5 plate reader (Molecular Devices). The EC50 value was determined from the dose response curve.
# [9] = tested on: OVCAR3-NucRed cancer cells; experiment: OVCAR3-NucRed co-cultures with PBMCs, enriched monocytes or CD16-depleted monocytes (Example 31); type: cell-based, human; conditions: 20 and 4 nM payload
# Source text: Frozen human PBMCs (1×10^8) were thawed and aliquoted into three tubes: one aliquot was subjected to human monocyte enrichment [StemCell Technologies] (“CD16 depleted monocytes”), one aliquot was subjected to human monocyte enrichment without CD16 depletion [StemCell Technologies] (“enriched monocytes”), and one aliquot was not subjected to enrichment (“PBMCs”). For flow cytometry, cells (50,000) from each group were transferred to a U-bottom 96-well plate in 4-replicates, washed with PBS and stained with live/dead fixable Aqua dead cell staining dye (Molecular Probes) followed by staining with fluorophore conjugated target specific (triplicates) or isotype control antibodies (Pacific Blue anti-human CD14, FITC anti-human CD3, APC/Cy7 CD16, PE anti-human CD32, PE/Cy7 anti-human CD64). Cells were fixed and surface expression of the proteins of interest was determined by flow cytometry analysis on a MACSQuant flow cytometer. Data analysis was performed by FlowJo software. Table 3 provides the frequency (% of single/live cells)) of CD14−/CD16+, CD14+/CD16+, CD14−/CD32+, CD14+/CD32+, CD14−/CD64+, CD14+/CD64+, and CD14−/CD3+ cells in PBMCs, enriched monocytes, and CD16-depleted monocyte populations
# OVCAR3-NucRed cells (generated as described in Example 28) were seeded (15,000/well) in 96-well CellBind surface tissue culture plates (Corning) and allowed to attach for 6 hours in RPMI-1640 medium with 10% FBS and 1% penicillin/streptomycin. Culture medium was replaced with fresh media (50 μL). […] PBMCs, enriched monocytes, and CD16-depleted monocytes were prepared as described in Example 29. Live PBMCs (30,000/well), enriched monocytes (20,000/well), and CD16-depleted monocytes (20,000/well) were then added to the wells in culture medium (50 μL) and the plate was placed in an IncuCyte© live cell imaging instrument in an incubator (37° C., 5% 02) and scanned every 4 hours over 2 days. The number of red objects (cancer cells) were quantified using the IncuCyte© Zoom software. Red object confluency in each well was normalized to its own T=0 time point red object confluency.
# [10] = tested on: CXCL10 produced by the SKOV3 cancer cell monocultures; experiment: CXCL10 ELISA of SKOV3 monocultures with conditioned media from immune cells (Example 36); type: cell-based, human; conditions: 24 hours
# Method: Conditioned media was prepared by culturing 1.5×10^6/mL PBMCs (two different donors), 1×10^6/mL primary monocytes (isolated from PBMCs from two different donors, as described in Example 29), or 1×10^6/mL THP1 cells in RPMI-1640 medium with 10% FBS and 1% penicillin/streptomycin for 24 hours at 37° C., 5% O2, in an incubator. The supernatants were collected and spun down at 2000 rpm for 10 min to remove any cells. SKOV3 cells were seeded in 96 well plates (30,000/well) and allowed to attach overnight in RPMI-1640 medium with 10% FBS and 1% penicillin/streptomycin. […] After incubation for 24 hours at 37° C., 5% O2 supernatants from the 96 well plates were analyzed for CXCL10 production using a human CXCL10 ELISA kit.
# [11] = tested on: THP1-Dual cells cultured on Her2 recombinant protein coated plates; experiment: THP1 luciferase reporter cells on Her2 protein coated plates (Example 27B); type: cell-based; conditions: Homo sapiens
# Method: The wells were then washed 1× with PBS-T and blocked by incubation with BSA (3% in PBS-T) for 1 hour at room temperature. […] THP1-dual reporter cells (50,000) were added into each well and incubated for 20 hours at 37° C. in a humidified atmosphere of 5% CO2. Cell culture supernatants (20 μl) from each incubated sample was added to resuspended QUANTI-Luc (50 μl) and the luminescent signal was measured immediately using a SpectraMax M5 plate reader (Molecular Devices). The EC50 value was determined from the dose response curve.
# [12] = tested on: STING pathway in THP1-Dual cells co-cultured with SKOV3 cancer cells; experiment: Cancer cell/THP1-IRF3-Luciferase reporter cell co-culture assay, SKOV3 (Example 34); type: cell-based; conditions: Homo sapiens, SK-OV-3, 20 h
# Method: The induction of STING pathway in immune cells by Her2-targeted STING ADC was evaluated by a cancer cell/THP1-IRF3-Luciferase reporter cell co-culture assay. SKOV3 human ovarian adenocarcinoma cells were seeded in 96-well CellBind surface tissue culture plates (20,000/well) and allowed to attach for 6 hours in McCoy's 5a medium with 10% FBS and 1% penicillin/streptomycin. […] 50,000 THP1-dual reporter cells were then added to each well and the incubation continued for 20 hours at 37° C. in a humidified atmosphere of 5% CO2. Cell culture supernatants (20 μL) from each incubated sample was added to resuspended QUANTI-Luc (50 μL) and the luminescent signal for IRF3 was measured immediately using a SpectraMax M5 plate reader (Molecular Devices). The EC50 value was determined from the dose response curve.
# CXCL10 induction [13] = experiment: CXCL10 induction in Calu3 cancer cell/PBMC co-cultures (Example 35); type: cell-based; conditions: Homo sapiens, Calu-3, read-out: EC50 - PBMC (CXCL10 induction)
# Method: CXCL10 induction: Calu3 human lung adenocarcinoma cells were seeded in 96-well tissue culture plates and allowed to attach overnight at 37° C., 5% CO2 in 100 μL of EMEM medium with 10% FBS and 1% penicillin/streptomycin. Culture medium was replaced with fresh media (100 μL).
# [14] = tested on: SKOV3 human ovarian cancer cells; experiment: SKOV3 xenograft, Fc mutant HER2 ADCs (Example 54); type: in vivo, mouse; conditions: iv day 1, n=10: Conjugate 8j 2.71/0.10, diABZI IV STING agonist 0/5 mg/kg
# Method: Tumors were measured twice weekly using digital calipers and tumor volumes were calculated using the formula: tumor volume (mm^3)=(width^2×length)/2. Body weights were recorded daily for the first week and twice weekly thereafter. Animals remained on study until individual tumor volume reached ≥1000 mm^3≥1500 mm^3 or as indicated. Percent change in body weight was calculated using the formula: body weight change (%)=((weight^study day X−weight^study day 1)/weight^study day 1)*100. Tumor volumes are reported as mean±standard error of the mean (SEM). Tumor growth inhibition (% TGI) was defined as the percent difference in mean tumor volumes (MTVs) between treated and control groups. Tumor size was measured throughout each efficacy study to determine tumor growth inhibition (TGI). Percent tumor regression was calculated using the formula: % regression=(1−(mean tumor volume^final)/(mean tumor volume^day 1))*100. A partial response (PR) is defined as a tumor volume of 50% or less for day 1 volume for three consecutive measurements and equal to or greater than 13.5 mm^3 for at least one of these three measurements. A complete response (CR) is defined as a tumor volume less than 13.5 mm^3 for three consecutive measurements. A tumor-free survivor (TFS) is classified as having a CR at the end of study. […]
# OVCAR3-NucRed cells = experiment: OVCAR3-NucRed/PBMC co-culture killing assay (Example 28B); type: cell-based, human
# Method: OVCAR3 human ovarian carcinoma cells stably expressing nuclear restricted mKate fluorescent red protein were generated by transduction with IncuCyte© NucLight Red Lentivirus reagent. Stably transduced cells (designated as OVCAR3-NucRed cells) selected in puromycin-containing media (2 μg/mL) for two days, were seeded in 96-well tissue culture plates (8,000/well) and allowed to attach overnight in RPMI-1640 medium with 10% FBS and 1% penicillin/streptomycin. Culture medium was replaced with fresh media (50 μL). […] Frozen human peripheral blood mononuclear cells (PBMCs) were thawed according to the supplier's instructions and were added to each well (40,000 PBMCs in 50 μL media) and the plate was placed in an IncuCyte© live cell imaging instrument in an incubator (37° C., 5% 02) and scanned every 4 hours over 2 days. The number of red objects (cancer cells) were quantified using the IncuCyte© Zoom software. Red object confluency in each well was normalized to its own T=0 time point red object confluency.
# OVCAR3-NucRed cells were seeded in 96-well tissue culture plates (20,000/well) and allowed to attach 6 hours in RPMI-1640 medium with 10% FBS and 1% penicillin/streptomycin. Culture medium was replaced with fresh media (50 μL). […] The number of red objects (cancer cells) were quantified using the IncuCyte© Zoom software. […]
molecule,measurement,setting,value
CCn1nc(C)cc1C(=O)Nc1nc2cc(C(N)=O)cc(OC)c2n1C/C=C/Cn1c(NC(=O)c2cc(C)nn2CC)nc2cc(C(N)=O)cc(OCCCO)c21 [Compound 1],Bmax (IL29/IL28b production),[1]; STING knock out (sgRNA#3) SKBR3/PBMC,0 OD450
same,Bmax (IL29/IL28b production),[1]; STING knock out (sgRNA#4) SKBR3/PBMC,0 OD450
same,EC50,[2],28.3 nM
same,killing of SKBR3 cells/PBMC co-cultures (FIG. 3A),[3],showed activity in STING wild type (sgNT-2) SKBR3 cells/PBMC co-cultures at 100 nM only
same,EC50,"CXCL10 induction [4]; Monocyte, read-out: EC50 - Monocyte (CXCL10 induction)",31.1 nM
same,EC50,"CXCL10 induction [4]; SK-BR-3, read-out: EC50 - PBMC (CXCL10 induction)",26.1 nM
same,EC50,"[5]; Homo sapiens, SK-BR-3, read-out: EC50 (IL29/IL28b production)",49.3 nM
same,Bmax (IL29/IL28b production),[5]; STING wild type SKBR3/PBMC,0.5 OD450
same,EC50,[6],6.8 nM
same,EC50,[7],7.4 nM
same,IC50,"SKBR3 NucRed cells; SK-BR-3, read-out: IC50 - Monocyte (killing activity)",8.32 nM
same,IC50,"SKBR3 NucRed cells; SK-BR-3, read-out: IC50 - PBMC (killing activity)",9.51 nM
same,EC50,[8],5.18 nM
same,killing of OVCAR3-NucRed cancer cells by CD16 depleted monocytes (FIG. 5C),[9],induced cancer cell killing
same,killing of OVCAR3-NucRed cancer cells by PBMCs (FIG. 5A),[9],only in enriched monocyte and CD16-depleted monocyte co-cultures
same,killing of OVCAR3-NucRed cancer cells by enriched monocytes (FIG. 5B),[9],induced cancer cell killing
same,O.D. 450 + 100 nM Compound 1 (CXCL10),[10]; Conditioned Media: Monocyte (Donor1),1.62 +/− 0.050 O.D. 450
same,O.D. 450 + 100 nM Compound 1 (CXCL10),[10]; Conditioned Media: Monocyte (Donor2),0.97 +/− 0.142 O.D. 450
same,O.D. 450 + 100 nM Compound 1 (CXCL10),[10]; Conditioned Media: None,0.16 +/− 0.038 O.D. 450
same,O.D. 450 + 100 nM Compound 1 (CXCL10),[10]; Conditioned Media: PBMC (Donor1),2.22 +/− 0.084 O.D. 450
same,O.D. 450 + 100 nM Compound 1 (CXCL10),[10]; Conditioned Media: PBMC (Donor2),0.83 +/− 0.086 O.D. 450
same,O.D. 450 + 100 nM Compound 1 (CXCL10),[10]; Conditioned Media: THP1,0.18 +/− 0.043 O.D. 450
same,EC50,[11],8.8 nM
CCc1nc(C)oc1C(=O)Nc1nc2cc(C(N)=O)cnc2n1C/C=C/Cn1c(NC(=O)c2oc(C)nc2CC)nc2cc(C(N)=O)cc(OCCCO)c21 [Compound 30],EC50,[12],38.5 nM
same,EC50,CXCL10 induction [13],160 nM
diABZI IV STING agonist,PR (partial responses),[14],7
"Conjugate 81: ""XMT-1535 was used instead of XMT-1519 and 2-(2-(2-(2-aminoethoxy)ethoxy)ethoxy)acetic acid was incorporated"" instead of (3-(2-(2-aminoethoxy)ethoxy)propanoyl)-L-alanine (conjugate, chains of the INN, looked up, drug-linker conjugate with PEG linker) VH: QVQLVQSGAEVVKPGASVKMSCKASGYTFTGYNIHWVKQAPGQGLEWIGAIYPGNGDTSYKQKFRGRATLTADTSTSTVYMELSSLRSEDSAVYYCARGETARATFAYWGQGTLVTVSS VL: DIQMTQSPSSLSASVGDRVTITCSASQDIGNFLNWYQQKPGKTVKVLIYYTSSLYSGVPSRFSGSGSGTDYTLTISSLQPEDFATYYCQQYSKLPLTFGQGTKLELK",lower payload concentration compared to Compound 1 for induction of cancer cell killing,OVCAR3-NucRed cells,100 ×
same,"cancer cell killing by PBMCs (red object numbers, FIG. 1B)",OVCAR3-NucRed cells; 1-100 nM payload,robust induction of cancer cell killing
